Test results from US8076329B2, “Histamine H3-receptor ligands and their therapeutic applications” (Bioprojet, priority 2005, dated 2011).
Values joined by “and” are separate entries in the source; they are usually repeats but may differ in a detail not shown here. Equal values may be shown once. Where a name gives a salt, the structure may show the parent alone.

Assays:
[1] = molecular target: human histamine H3 receptors (Homo sapiens, UniProt Q9Y5N1); assay: H3 binding ([125I]iodoproxyfan displacement on membranes); conditions: compounds of the invention; membranes expressing human H3 receptors
human histamine H3 receptors, sequence (Q9Y5N1 whole entry): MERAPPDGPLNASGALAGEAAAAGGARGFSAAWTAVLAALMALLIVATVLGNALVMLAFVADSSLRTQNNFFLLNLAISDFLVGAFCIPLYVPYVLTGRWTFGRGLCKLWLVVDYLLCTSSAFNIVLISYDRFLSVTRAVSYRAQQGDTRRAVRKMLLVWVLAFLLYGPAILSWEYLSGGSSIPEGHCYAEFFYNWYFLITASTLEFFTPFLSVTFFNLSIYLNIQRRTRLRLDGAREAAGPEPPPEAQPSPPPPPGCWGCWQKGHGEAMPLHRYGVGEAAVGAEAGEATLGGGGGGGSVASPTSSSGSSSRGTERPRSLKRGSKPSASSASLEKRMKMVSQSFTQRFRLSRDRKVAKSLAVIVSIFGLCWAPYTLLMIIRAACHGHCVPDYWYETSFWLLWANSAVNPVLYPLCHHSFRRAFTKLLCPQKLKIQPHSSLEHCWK
Procedure: Membranes expressing human histamine H3 receptors were incubated 1 hour at room temperature in binding buffer containing 50 mM Na2HPO4/KH2PO4 pH 7.5 in a final volume of 200 μl. […] The reaction was stopped by rapid filtration through GF/B filters (pre-soaked for 2 hours with 0.3% polyethyleneimine) followed by 3 ice cold binding buffer washes. The filter-bound radioactivity was measured in a liquid scintillation counter with 50 μl of scintillation fluid.

[2] = molecular target: CYP2D6 (Homo sapiens, UniProt P10635); assay: Cytochrome inhibition, fluorometric microtiter plate assay; assay type: in vitro ADME; conditions: CYP2D6 cytochrome inhibition (IC50, concentrations in μM for 50% inhibition), human recombinant CYP2D6, substrate AMMC, compounds of the invention
CYP2D6, sequence (P10635 whole entry, canonical isoform): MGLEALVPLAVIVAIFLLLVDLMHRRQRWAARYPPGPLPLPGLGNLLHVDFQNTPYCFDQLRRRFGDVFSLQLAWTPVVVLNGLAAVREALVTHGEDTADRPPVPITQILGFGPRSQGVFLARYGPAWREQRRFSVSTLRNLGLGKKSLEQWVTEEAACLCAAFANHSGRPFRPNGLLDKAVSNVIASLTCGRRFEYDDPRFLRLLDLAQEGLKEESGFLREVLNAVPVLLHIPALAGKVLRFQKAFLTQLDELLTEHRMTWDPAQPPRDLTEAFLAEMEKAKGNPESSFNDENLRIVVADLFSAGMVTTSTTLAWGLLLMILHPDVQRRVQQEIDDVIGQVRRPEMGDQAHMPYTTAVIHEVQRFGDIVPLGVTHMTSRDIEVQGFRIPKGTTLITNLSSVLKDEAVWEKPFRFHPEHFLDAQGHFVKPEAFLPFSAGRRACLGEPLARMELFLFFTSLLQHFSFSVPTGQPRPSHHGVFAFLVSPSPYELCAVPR
Procedure: (§1) The ability of drug in human to inhibit the catalytic activity of cytochrome P-450 isoforms was assayed using microtiter plate-based, fluorometric assays for the activities of the five human major CYP forms. Inhibition potential was determined in vitro after incubation of fluorescent model substrates over various incubation time with human recombinant cytochrome isoforms in the absence or in presence of increasing concentrations of test molecules (from 1 nM to 100 μM), in comparison with specific CYP isoform inhibitors.
(§2) Incubation of drug was carried out at 37° C.±0.5° C. under agitation in the presence of human recombinant cytochrome P-450 isoforms and a NADPH generating system. The incubation conditions for each cytochrome isoform were as follows: […]

[3] = molecular target: CYP3A4 (Homo sapiens, UniProt P08684); assay: as above; assay type: in vitro ADME; conditions: CYP3A4 cytochrome inhibition (IC50, concentrations in μM for 50% inhibition), human recombinant CYP3A4, substrate BFC, compounds of the invention
CYP3A4, sequence (P08684 whole entry): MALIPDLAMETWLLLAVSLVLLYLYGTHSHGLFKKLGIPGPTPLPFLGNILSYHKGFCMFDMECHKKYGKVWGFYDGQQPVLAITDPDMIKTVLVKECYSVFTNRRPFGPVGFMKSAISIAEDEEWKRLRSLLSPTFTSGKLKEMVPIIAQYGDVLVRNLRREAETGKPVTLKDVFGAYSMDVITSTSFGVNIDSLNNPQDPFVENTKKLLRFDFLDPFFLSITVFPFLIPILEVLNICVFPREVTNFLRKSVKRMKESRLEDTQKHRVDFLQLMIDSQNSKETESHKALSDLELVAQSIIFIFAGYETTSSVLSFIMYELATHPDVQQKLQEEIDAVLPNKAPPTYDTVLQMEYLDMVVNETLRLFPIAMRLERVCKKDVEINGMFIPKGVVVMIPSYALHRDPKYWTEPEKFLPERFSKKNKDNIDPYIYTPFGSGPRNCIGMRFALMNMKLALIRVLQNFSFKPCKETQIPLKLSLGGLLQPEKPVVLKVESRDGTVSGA
Procedure: as §1, §2

C[C@H]1C[C@H](C)CN(CCCOc2ccc([C@H]3CC[C@H](N(C)C)CC3)cc2)C1 (as salt: hydrochloride) [Example 12, (3S,5S)-1-{3-[4-(trans-4-dimethylaminocyclohex-1-yl)phenoxy]propyl}-3,5-dimethylpiperidine]
melting point: 240 °C

c1cc(-c2ccc(OCCCN3CCCCC3)cc2)ccc1CCCN1CCCCC1 (as salt: oxalate) [Example 48]
melting point: 130 °C

CC1CCCN1CCCOc1ccc([C@H]2CC[C@H](O)CC2)cc1 (stereo partly drawn) (as salt: oxalate) [Example 66, 1-{3-[trans-4-(4-hydroxycyclohexyl)phenoxy]propyl}-2-methylpyrrolidine]
melting point: 80 °C

C[C@H]1C[C@H](C)CN(CCCOc2ccc(C(=O)N(C)C)cc2)C1 (relative stereo) [Example 1, trans-1-{3-[4-(N,N-dimethylcarbamoyl)phenoxy]propyl}-3,5-dimethylpiperidine]
Ki [1]: 2.9 nM | IC50 [2]: > 10 µM | IC50 [3]: 32 µM

C[C@@H]1C[C@@H](C)CN(CCCOc2ccc(C3=NCCC3)cc2)C1 (relative stereo) [Example 17, trans-1-{3-[4-(4,5-dihydro-3H-pyrrol-2-yl)phenoxy]propyl}-3,5-dimethylpiperidine]
Ki [1]: 0.43 nM

C[C@H]1CCCN(CCCOc2ccc(C3CCC(N4CCOCC4)CC3)cc2)C1 (single isomer, unassigned) [Example 41, dihydrochloride]
Ki [1]: 0.13 nM | IC50 [2]: > 10 µM and 14 µM | IC50 [3]: > 1 µM and 13 µM

O=C(c1ccccc1)c1ccc(OCCCN2CCCCC2)cc1 [Example 3]
Ki [1]: 1.1 nM | IC50 [2]: 32 µM | IC50 [3]: 18 µM

CCCC(O)(CCC)c1ccc(OCCCN2CCCCC2)cc1 [Example 7, 1-{3-[4-(1-hydroxy-1-propylbutyl)phenoxy]propyl}piperidine]
Ki [1]: 0.74 nM | IC50 [2]: 39 µM | IC50 [3]: 4 µM

OC1(c2ccc(OCCCN3CCCCC3)cc2)CCCC1 [Example 8, 1-{3-[4-(1-hydroxycyclopentyl)phenoxy]propyl}piperidine]
Ki [1]: 0.82 nM | IC50 [2]: > 100 µM | IC50 [3]: 20 µM

O=C(O)C(=O)O.O=C(O)C(=O)O.c1cc(C2=NCCCC2)ccc1OCCCN1CCCCC1 [Example 15, 6-[4-(3-piperidinopropoxy)phenyl]-2,3,4,5-tetrahydropyridine]
melting point: 104 °C | IC50 [2]: > 10 µM | IC50 [3]: 46 µM

Cc1ccc(-c2ccc(OCCCN3CCCCC3)cc2)cc1.O=C(O)C(=O)O [Example 24, 1-{3-[(4′-methylbiphenyl-4-yl)oxy]propyl}piperidine]
Ki [1]: 3.5 nM | melting point: 195 °C | IC50 [2]: > 10 µM | IC50 [3]: > 10 µM

Cc1ccccc1-c1ccc(OCCCN2CCCCC2)cc1 [Example 28, 1-{3-[(2′-methylbiphenyl-4-yl)oxy]propyl}piperidine]
Ki [1]: 0.53 nM | IC50 ([2]; human, recombinant human CYP2D6, probe AMMC): 10 µM | IC50 ([3]; human, recombinant human CYP3A4, probe BFC): 10 µM

c1cc(-c2ccc(OCCCN3CCCCC3)cc2)cs1 [Example 29, 1-{3-[4-(3-thienyl)phenoxy]propyl}piperidine]
Ki [1]: 0.88 nM | IC50 [2]: 24 µM | IC50 [3]: > 100 µM

c1cncc(-c2ccc(OCCCN3CCCCC3)cc2)c1 [Example 32, 1-{3-[4-(3-pyridyl)phenoxy]propyl}piperidine]
Ki [1]: 0.22 nM | IC50 [2]: 7 µM | IC50 [3]: 9 µM

c1cc(-c2ccc(OCCCN3CCCCC3)cc2)ccc1OCCCN1CCCCC1 [Example 35, di-1,1′-{(biphenyl-4,4′-diyl)bis[oxy(propan-1,3-diyl)]}piperidine]
Ki [1]: 0.1 nM | IC50 [2]: 71 µM | IC50 [3]: 5 µM

c1cc(-c2ccc(OCCCN3CCCC3)cc2)ccc1OCCCN1CCCCC1 [Example 37, 1-(3-{[4′-(3-piperidinopropoxy)biphenyl-4-yl]oxy}propyl)pyrrolidine]
melting point: 105 to 108 °C | IC50 [2]: > 10 µM | IC50 [3]: 15 µM

c1cc(-c2ccc(OCCCN3CCCCC3)cc2)ccc1CN1CCCCC1 [Example 42, 1-(3-{[4′-(piperidinomethyl)biphenyl-4-yl]oxy}propyl)piperidine]
melting point: 90 °C | IC50 [2]: > 10 µM | IC50 [3]: > 10 µM

C(#Cc1ccc(OCCCN2CCCCC2)cc1)CCN1CCCCC1.O=C(O)C(=O)O.O=C(O)C(=O)O [Example 43, 1-{3-[4-(4-Piperidinobut-1-yn-1-yl)phenoxy]propyl}piperidine]
melting point: 167 °C | IC50 [2]: > 1 µM | IC50 [3]: > 10 µM

Cc1cc(-c2ccc(OCCCN3CCC[C@H](C)C3)cc2)cc[n+]1[O-] [Example 54, 2-methyl-4-(4-{3-[(3S)-3-methylpiperidin-1-yl]propoxy}phenyl)pyridine 1-oxide]
Ki [1]: 0.4 nM | IC50 [2]: > 10 µM | IC50 [3]: > 1 µM

C[C@H]1CCCN(CCCOc2ccc(-c3ccnc(O)c3)cc2)C1.O=C(O)C(=O)O [Example 55, 2-hydroxy-4-(4-{3-[(3S)-3-methylpiperidin-1-yl]propoxy}phenyl)pyridine]
melting point: 110 °C | IC50 [2]: > 10 µM | IC50 [3]: > 10 µM

C[C@H]1CCCN(CCCOc2ccc(-c3ccnc(Cl)c3)cc2)C1.O=C(O)C(=O)O.O=C(O)C(=O)O [Example 56, 2-chloro-4-(4-{3-[(3S)-3-methylpiperidin-1-yl]propoxy}phenyl)pyridine]
melting point: 143 °C | IC50 [2]: > 10 µM | IC50 [3]: > 1 µM

C[C@H]1CCCN(CCCOc2ccc(-c3cc[n+](C)cc3)cc2)C1 [Example 57, 1-methyl-4-(4-{3-[(3S)-3-methylpiperidin-1-yl]propoxy}phenyl)pyridinium]
IC50 [2]: > 10 µM | IC50 [3]: > 10 µM

C[C@H]1CCCN(CCCOc2ccc(-c3ccnc(OCCCN4CCCCC4)c3)cc2)C1 [Example 58, 2-(3-piperidinopropoxy)-4-(4-{3-[(3S)-3-methylpiperidin-1-yl]propoxy}phenyl)-pyridine]
Ki [1]: 0.061 nM | IC50 [2]: > 10 µM | IC50 [3]: > 10 µM

Cc1cc(-c2ccc(OCCCN3CCC[C@H](C)C3)cc2)ccn1.O=C(O)C(=O)O.O=C(O)C(=O)O [Example 59, 2-methyl-4-(4-{3-[(3S)-3-methylpiperidin-1-yl]propoxy}phenyl)pyridine]
melting point: 97 °C | IC50 [2]: > 10 µM | IC50 [3]: > 10 µM

OC1CCC(c2ccc(OCCCN3CCCCC3)cc2)CC1 (centres unmarked) [Example 60, 1-{3-[4-(4-hydroxycyclohexyl)phenoxy]propyl}piperidine]
IC50 [2]: > 10 µM | IC50 [3]: > 10 µM

C[C@H]1CCCN(CCCOc2ccc([C@H]3CC[C@H](O)CC3)cc2)C1 [Example 61, (3S)-1-{3-[trans-4-(4-hydroxycyclohexyl)phenoxy]propyl}-3-methylpiperidine]
IC50 [2]: > 10 µM | IC50 [3]: > 10 µM

C[C@H]1CCCN(CCCOc2ccc([C@H]3CC[C@H](O)CC3)cc2)C1 [Example 62, (3S)-1-{3-[4-(4-hydroxycyclohexyl)phenoxy]propyl}-3-methylpiperidine]
Ki [1]: 0.554 nM

O[C@H]1CC[C@H](c2ccc(OCCCN3CCCC3)cc2)CC1 [Example 63, 1-{3-[trans-4-(4-hydroxycyclohexyl)phenoxy]propyl}pyrrolidine]
IC50 [2]: > 10 µM | IC50 [3]: > 10 µM

C[C@H]1CCCN(CCCOc2ccc(C3CCC(C)(O)CC3)cc2)C1 (stereo partly drawn) [Example 64, (3S)-1-{3-[4-(4-hydroxy-4-methylcyclohexyl)phenoxy]propyl}-3-methylpiperidine]
IC50 [2]: > 10 µM | IC50 [3]: > 10 µM

O[C@H]1CC[C@H](c2ccc(OCCCN3CCCCC3)cc2)CC1 [Example 65, 1-{3-[trans-4-(4-hydroxycyclohexyl)phenoxy]propyl}piperidine]
IC50 [2]: > 10 µM | IC50 [3]: > 10 µM

CC1CCCN1CCCOc1ccc([C@H]2CC[C@H](O)CC2)cc1 (stereo partly drawn) [Example 66, 1-{3-[trans-4-(4-hydroxycyclohexyl)phenoxy]propyl}-2-methylpyrrolidine]
Ki [1]: 0.83 nM | IC50 [2]: > 10 µM | IC50 [3]: > 10 µM

CN1CCC(OCc2ccc(OCCCN3CCCCC3)cc2)CC1 [Example 67, 1-methyl-4-[4-(3-piperidinopropoxy)benzyloxy]piperidine]
IC50 [2]: > 10 µM | IC50 [3]: > 10 µM

CN1CCC(COCc2ccc(OCCCN3CCCCC3)cc2)CC1 [Example 68, 1-methyl-4-[4-(3-piperidinopropoxy)benzyloxymethyl]piperidine]
IC50 [2]: > 10 µM | IC50 [3]: > 10 µM

CN1CCC(CCOCc2ccc(OCCCN3CCCCC3)cc2)CC1 [Example 69, 1-methyl-4-{2-[4-(3-piperidinopropoxy)benzyloxy]ethyl}piperidine]
Ki [1]: 1.19 nM | IC50 [2]: > 10 µM | IC50 [3]: > 10 µM

CCN1CCCC(OCc2ccc(OCCCN3CCCCC3)cc2)C1 (centres unmarked) [Example 70, 1-ethyl-3-[4-(3-piperidinopropoxy)benzyloxy]piperidine]
Ki [1]: 0.35 nM
